# The source made the active and inactive calls. No cut-off for these calls is given here.
# Assays:
# HCC1806 [1] = test: Antiproliferative activity against human HCC1806 cells assessed as inhibition of cell proliferation at 1 uM incubated for 24 hrs by SRB assay relative to control; type: functional
# HCC1806 [2] = test: Antiproliferative activity against human HCC1806 cells assessed as inhibition of cell proliferation incubated for 24 hrs by SRB assay; type: functional, cell-based; details: HCC1806, 24 h
# HCC1806 [3] = test: Induction of morphological changes in human HCC1806 cells assessed as rate of intracellular vacuolization at 1 uM incubated for 24 hrs by microscopic analysis relative to control; type: functional
# HCC1806 [4] = test: Antiproliferative activity against human HCC1806 cells assessed as inhibition of cell proliferation at 2 uM incubated for 24 hrs by SRB assay relative to control; type: functional
# 184B5 [5] = test: Cytotoxicity against human 184B5 cells assessed as reduction in cell viability at 2 uM incubated for 24 hrs by SRB assay; type: toxicity, cell-based; details: 184b5, 24 h
# MDA-MB-468 [6] = test: Induction of morphological changes in human MDA-MB-468 cells assessed as intracellular vacuolization at 1 uM incubated for 24 hrs by microscopic analysis; type: functional, cell-based
# 184B5 [7] = test: Induction of morphological changes in human 184B5 cells assessed as intracellular vacuolization upto 2 uM incubated for 24 hrs by microscopic analysis; type: toxicity, cell-based; details: 184b5, 24 h
# MDA-MB-468 [8] = test: Antiproliferative activity against human MDA-MB-468 cells assessed as inhibition of cell proliferation incubated for 24 hrs by SRB assay; type: functional, cell-based; details: MDA-MB-468, 24 h
# HCC1937 = test: Antiproliferative activity against human HCC1937 cells assessed as inhibition of cell proliferation incubated for 24 hrs by SRB assay; type: functional, cell-based; details: HCC1937, 24 h
# HCC1806 [9] = test: Induction of morphological changes in human HCC1806 cells assessed as intracellular vacuolization at 0.5 uM incubated for 24 hrs by microscopic analysis; type: functional, cell-based
# MDA-MB-468 [10] = test: Induction of morphological changes in human MDA-MB-468 cells assessed as intracellular vacuolization at 0.5 uM incubated for 24 hrs by microscopic analysis; type: functional, cell-based
# HCC1806 [11] = test: Induction of morphological changes in human HCC1806 cells assessed as intracellular vacuolization incubated for 24 hrs by microscopic analysis; type: functional, cell-based; details: dose 0.5-1.5 µM
# MDA-MB-468 [12] = test: Induction of morphological changes in human MDA-MB-468 cells assessed as intracellular vacuolization incubated for 24 hrs by microscopic analysis; type: functional, cell-based; details: dose 0.5-1.5 µM
# HCC1806 [13] = test: Induction of morphological changes in human HCC1806 cells assessed as intracellular vacuolization at 1.5 uM measured after 12 to 24 hrs by microscopic analysis; type: functional, cell-based; details: time 12-24 hrs
# HCC1806 [14] = test: Antiproliferative activity against human HCC1806 cells assessed as inhibition of cell proliferation at 1 uM pretreated with Z-VAD-FMK followed by compound addition measured after 24 hrs by SRB assay; type: functional, cell-based
# MDA-MB-468 [15] = test: Antiproliferative activity against human MDA-MB-468 cells assessed as inhibition of cell proliferation at 1 uM pretreated with Z-VAD-FMK followed by compound addition measured after 24 hrs by SRB assay; type: functional, cell-based
# HCC1806 [16] = test: Induction of morphological changes in human HCC1806 cells assessed as intracellular vacuolization at 1 uM pretreated with Z-VAD-FMK followed by compound addition measured after 24 hrs by microscopic analysis; type: functional, cell-based
# MDA-MB-468 [17] = test: Induction of morphological changes in human MDA-MB-468 cells assessed as intracellular vacuolization at 1 uM pretreated with Z-VAD-FMK followed by compound addition measured after 24 hrs by microscopic analysis; type: functional, cell-based
# HCC1806 [18] = test: Upregulation of p62 level in human HCC1806 cells incubated for 24 hrs by Western blot analysis; type: functional, cell-based; details: dose <= 1.5 µM
# HCC1806 [19] = test: Upregulation of LC3-II level in human HCC1806 cells incubated for 24 hrs by Western blot analysis; type: functional, cell-based; details: dose <= 1.5 µM
# MDA-MB-468 [20] = test: Upregulation of Rab7 level in human […] cells incubated for 24 hrs by Western blot analysis; type: functional, cell-based; details: dose <= 1.5 µM
# HCC1806 [21] = test: Upregulation of Lamp1 level in human HCC1806 cells incubated for 24 hrs by Western blot analysis; type: functional, cell-based; details: dose <= 1.5 µM
# HCC1806 [22] = test: Antiproliferative activity against human HCC1806 cells assessed as inhibition of cell proliferation at 1 uM measured after 24 hrs in presence of 3-MA by SRB assay; type: functional, cell-based
# MDA-MB-468 [23] = test: Antiproliferative activity against human MDA-MB-468 cells assessed as inhibition of cell proliferation at 1 uM measured after 24 hrs in presence of 3-MA by SRB assay; type: functional, cell-based
# HCC1806 [24] = test: Induction of morphological changes in human HCC1806 cells assessed as intracellular vacuolization at 1 uM measured after 24 hrs in presence of 3-MA by microscopic analysis; type: functional, cell-based
# MDA-MB-468 [25] = test: Induction of morphological changes in human MDA-MB-468 cells assessed as intracellular vacuolization at 1 uM measured after 24 hrs in presence of 3-MA by microscopic analysis; type: functional, cell-based
# HCC1806 [26] = test: Antiproliferative activity against human HCC1806 cells assessed as inhibition of cell proliferation at 1.5 uM pretreated with Baf-A1 followed by compound addition measured after 24 hrs by SRB assay; type: functional, cell-based
# MDA-MB-468 [27] = test: Antiproliferative activity against human MDA-MB-468 cells assessed as inhibition of cell proliferation at 1.5 uM pretreated with Baf-A1 followed by compound addition measured after 24 hrs by SRB assay; type: functional, cell-based
# HCC1806 [28] = test: Induction of morphological changes in human HCC1806 cells assessed as intracellular vacuolization at 1.5 uM pretreated with Baf-A1 followed by compound addition measured after 24 hrs by microscopic analysis; type: functional, cell-based
# MDA-MB-468 [29] = test: Induction of morphological changes in human MDA-MB-468 cells assessed as intracellular vacuolization at 1.5 uM pretreated with Baf-A1 followed by compound addition measured after 24 hrs by microscopic analysis; type: functional, cell-based
# HCC1806 [30] = test: Induction of macropinocytosis in human HCC1806 cells at 1.5 uM incubated for 24 hrs by LY staining based live cell imaging analysis; type: functional
# MDA-MB-468 [31] = test: Induction of macropinocytosis in human MDA-MB-468 cells at 1.5 uM incubated for 24 hrs by LY staining based live cell imaging analysis; type: functional
# HCC1806 [32] = test: Upregulation of Rab7 level in human HCC1806 cells incubated for 24 hrs by Western blot analysis; type: functional, cell-based; details: dose <= 1.5 µM
# MDA-MB-468 [33] = test: Upregulation of Lamp1 level in human MDA-MB-468 cells incubated for 24 hrs by Western blot analysis; type: functional, cell-based; details: dose <= 1.5 µM
# HCC1806 [34] = test: Upregulation of Rab7 level in human HCC1806 cells at 1.5 uM incubated for 24 hrs by immunofluorescence microscopy; type: functional, cell-based
# HCC1806 [35] = test: Upregulation of Lamp1 level in human HCC1806 cells at 1.5 uM incubated for 24 hrs by immunofluorescence microscopy; type: functional, cell-based
# MDA-MB-468 [36] = test: Upregulation of Rab7 level in human MDA-MB-468 cells at 1.5 uM incubated for 24 hrs by immunofluorescence microscopy; type: functional, cell-based
# MDA-MB-468 [37] = test: Upregulation of Lamp1 level in human MDA-MB-468 cells at 1.5 uM incubated for 24 hrs by immunofluorescence microscopy; type: functional, cell-based
# HCC1806 [38] = test: Antitumor activity against human HCC1806 cells xenografted in mouse assessed as tumor growth inhibition at 2.5 to 5 mg/kg, ip administered every 2 days for 15 days; type: functional, organism-based; details: dose 2.5-5 mg/kg, time 15.0 day
# [39] = Toxicity in mouse xenografted with human HCC1806 cells assessed as body weight change at 2.5 to 5 mg/kg, ip administered every 2 days for 15 days; type: organism-based; details: in vivo, 360 h, dose 2.5-5 mg/kg, time 15 day
# [40] = Toxicity in mouse xenografted with human HCC1806 cells assessed as drug tolerance at 2.5 to 5 mg/kg, ip administered every 2 days for 15 days; type: organism-based; details: in vivo, 360 h, dose 2.5-5 mg/kg, time 15 day
# [41] = Toxicity in mouse xenografted with human HCC1806 cells assessed as effect on ALT level at 2.5 to 5 mg/kg, ip administered every 2 days for 15 days; type: organism-based; details: in vivo, 360 h, dose 2.5-5 mg/kg, time 15 day
# [42] = Toxicity in mouse xenografted with human HCC1806 cells assessed as effect on AST level at 2.5 to 5 mg/kg, ip administered every 2 days for 15 days; type: organism-based; details: in vivo, 360 h, dose 2.5-5 mg/kg, time 15 day
# [43] = Toxicity in mouse xenografted with human HCC1806 cells assessed as effect on CR level at 2.5 to 5 mg/kg, ip administered every 2 days for 15 days; type: organism-based; details: in vivo, 360 h, dose 2.5-5 mg/kg, time 15 day
compound,measurement,setting,value
COc1cc(Nc2nc(N3CCNCC3)ncc2SC)ccc1NC(=O)c1cccc(Br)n1,inhibition at 1 µM,HCC1806 [1],99.5%
same,IC50,HCC1806 [2],700 nM
same,Activity,HCC1806 [3],78.3%
same,inhibition at 2 µM,HCC1806 [4],7.07%
same,Activity,184B5 [5],Toxic
same,Activity,MDA-MB-468 [6],Active
same,Activity,184B5 [7],Non-Toxic
same,IC50,MDA-MB-468 [8],920 nM
same,IC50,HCC1937,1030 nM
same,Activity,HCC1806 [9],Active
same,Activity,MDA-MB-468 [10],Active
same,Activity,HCC1806 [11],Dose-Dependent Effect
same,Activity,MDA-MB-468 [12],Dose-Dependent Effect
same,Activity,HCC1806 [13],Active
same,Activity,HCC1806 [14],Active
same,Activity,MDA-MB-468 [15],Active
same,Activity,HCC1806 [16],Active
same,Activity,MDA-MB-468 [17],Active
same,Activity,HCC1806 [18],Dose-Dependent Effect
same,Activity,HCC1806 [19],Dose-Dependent Effect
same,Activity,MDA-MB-468 [20],Dose-Dependent Effect
same,Activity,HCC1806 [21],Dose-Dependent Effect
same,Activity,HCC1806 [22],Active
same,Activity,MDA-MB-468 [23],Active
same,Activity,HCC1806 [24],Active
same,Activity,MDA-MB-468 [25],Active
same,Activity,HCC1806 [26],inactive
same,Activity,MDA-MB-468 [27],inactive
same,Activity,HCC1806 [28],inactive
same,Activity,MDA-MB-468 [29],inactive
same,Activity,HCC1806 [30],Active
same,Activity,MDA-MB-468 [31],Active
same,Activity,HCC1806 [32],Dose-Dependent Effect
same,Activity,MDA-MB-468 [33],Dose-Dependent Effect
same,Activity,HCC1806 [34],Active
same,Activity,HCC1806 [35],Active
same,Activity,MDA-MB-468 [36],Active
same,Activity,MDA-MB-468 [37],Active
same,Activity,HCC1806 [38],Active
same,Activity,[39],Non-Toxic
same,Activity,[40],Non-Toxic
same,Activity,[41],Non-Toxic
same,Activity,[42],Non-Toxic
same,Activity,[43],Non-Toxic

# From ChEMBL document CHEMBL5338793, “Discovery of Pyrimidinediamine Derivatives as Potent Methuosis Inducers for the Treatment of Triple-Negative Breast Cancer” (J Med Chem, 2023)
